In patent publication US8501713B2, “Drug combinations for the treatment of duchenne muscular dystrophy” (Summit Corporation PLC, priority 2007, dated 2013):

Tested on: Utrophin A promoter linked to a luciferase reporter gene
Assay: Luciferase reporter assay (murine H2K cells)
Format: cell-based
Conditions: for activity at 10 µM: Mus musculus, H2K mdx, read-out: Activity
Method in brief: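 Compound at 10 μM final was applied for 48 hrs to plated H2K mdx myoblasts (33° C, 10% CO2, interferon-containing medium) bearing a luciferase gene under the utrophin A promoter. Luminescence from lysed cells served as read-out.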

[1] = luciferase level relative to control, H2K/mdx/Utro A reporter cells, compound 10 μM final concentration
[2] = luciferase reporter assay in murine H2K cells, classified relative to control

Row | SMILES | activity at 10 µM [1] | further results
1 | CC(C)CN(CC(C)C)c1ccc2oc(-c3ccc(Cl)cc3)nc2c1 [Example 335, 2-(4-chlorophenyl)-N,N-diisobutylbenzo[d]oxazol-5-amine] | < 200% | –
2 | CC(C)C(=O)Nc1ccc2oc(-c3ccc(F)cc3)nc2c1 [Example 258, N-(2-(4-fluorophenyl)benzo[d]oxazol-5-yl)isobutyramide] | 301 to 400% | –
3 | CC(C)C(=O)Nc1ccc(-c2nc3ccccc3o2)cc1 [Example 454, N-(4-(Benzo[d]oxazol-2-yl)phenyl)isobutyramide] | > 401% | –
4 | c1ccc(-c2ccc(-c3nc4ccccc4[nH]3)cc2)cc1 [Example 558] | – | Activity [2]: + (Up to 200% relative to control)
5 | O=[N+]([O-])c1ccc2[nH]c(-c3ccco3)nc2c1 [Example 508] | – | Activity [2]: + (Up to 200% relative to control)
6 | O=C(Nc1ccc2oc(-c3cccnc3)nc2c1)c1ccc(-c2ccccc2)cc1 [Example 49, N-(2-(pyridin-3-yl)benzo[d]oxazol-5-yl)biphenyl-4-carboxamide] | < 200% | –
7 | CC(=O)Nc1ccc(-c2nc3cc(Cl)c(NC(C)=O)cc3[nH]2)cc1 [Example 556] | – | Activity [2]: + (Up to 200% relative to control)
8 | O=[N+]([O-])c1ccc2nc(-c3ccc(Cl)cc3)[nH]c2c1 [Example 164, 2-(4-chlorophenyl)-6-nitro-1H-benzo[d]imidazole] | 201 to 300% | –
9 | O=C(O)c1cccc(-c2ccc3oc(-c4ccc(Cl)cc4)nc3c2)c1 [Example 313, 3-(2-(4-chlorophenyl)benzo[d]oxazol-5-yl)benzoic acidd] | – | Activity [1]: + (Up to 200% relative to control)
10 | O=[N+]([O-])c1ccc2oc(-c3ccc4c(c3)OCO4)nc2c1 [Example 286, 2-(benzo[d][1,3]dioxol-5-yl)-5-nitrobenzo[d]oxazole] | 301 to 400% | –
11 | Cc1ccc(-c2nc3cc(NC(=O)c4ccco4)ccc3o2)cc1 [Example 119, N-(2-p-tolylbenzo[d]oxazol-5-yl)furan-2-carboxamide] | < 200% | –
12 | O=C(Nc1ccccc1-c1nc2ccccc2[nH]1)c1ccc(S(=O)(=O)N2CCCC2)cc1 [Example 511] | – | Activity [2]: + (Up to 200% relative to control)
13 | CCCCc1nc2cc(S(=O)(=O)CC)ccc2o1 [Example 570] | – | Activity [2]: + (Up to 200% relative to control)
14 | COCc1nc2ccccc2[nH]1 [Example 499] | – | Activity [2]: + (Up to 200% relative to control)
15 | O=C(Nc1ccc2oc(-c3ccc(Cl)cc3)nc2c1)c1cc(Cl)cc(Cl)c1 [Example 95, 3,5-dichloro-N-(2-(4-chlorophenyl)benzo[d]oxazol-5-yl)benzamide] | < 200% | –
16 | CC(C)C(=O)Nc1ccc2oc(C3CCCCC3)nc2c1 [Example 248, N-(2-cyclohexylbenzo[d]oxazol-5-yl)isobutyramide] | > 401% | –
17 | Cn1c(NC(=N)c2ccccc2)nc2ccccc21 [Example 669] | – | Activity [2]: ++ (Between 201% and 300% relative to control)
18 | CC(C)C(=O)Nc1ccc2oc(-c3cccc(F)c3)nc2c1 [Example 245, N-(2-(3-fluorophenyl)benzo[d]oxazol-5-yl)isobutyramide] | 301 to 400% | –
19 | CCN(CC)c1ccc(-c2nc3cc(NC(=O)c4ccc(-c5ccccc5)cc4)ccc3o2)cc1 [Example 72, N-(2-(4-(diethylamino)phenyl)benzo[d]oxazol-5-yl)biphenyl-4-carboxamide] | < 200% | –
20 | Nc1ccc2oc(-c3ccc(N4CCCCC4)cc3)nc2c1 [Example 150, 2-(4-(piperidin-1-yl)phenyl)benzo[d]oxazol-5-amine] | 201 to 300% | –
21 | Nc1ccc2oc(-c3ccc(C4CCCCC4)cc3)nc2c1 [Example 421, 2-(4-cyclohexylphenyl)benzo[d]oxazol-5-amine] | > 401% | –
22 | CCN(CC)c1ccc(-c2nc3cc(-c4ccccc4)ccc3o2)cc1 [Example 145, N,N-diethyl-4-(5-phenylbenzo[d]oxazol-2-yl)aniline] | < 200% | –
23 | Nc1ccc2oc(-c3ccccc3Cl)nc2c1 [Example 206, 2-(2-chlorophenyl)benzo[d]oxazol-5-amine] | 201 to 300% | –
24 | Cc1ccc2sc(-c3ccc(NC(=O)c4cc(-n5cnnc5)ccc4Cl)cc3)nc2c1 [Example 688] | – | Activity [2]: ++ (Between 201% and 300% relative to control)
25 | CCCS(=O)(=O)Nc1ccc2oc(-c3ccccc3)nc2c1 [Example 193, N-(2-phenylbenzo[d]oxazol-5-yl)propane-1-sulfonamide] | 201 to 300% | –
26 | COc1ccc(CSc2nc3ccccc3n2C)cc1F [Example 645] | – | Activity [2]: +++ (Between 301% and 400% relative to control)
27 | CC(C)N(C)C(=O)c1ccc2oc(-c3ccc(Cl)cc3)nc2c1 [Example 278, 2-(4-chlorophenyl)-N-isopropyl-N-methylbenzo[d]oxazole-5-carboxamide] | 301 to 400% | –
28 | CC(C)C(=O)Nc1ccc2oc(-c3ccc4ccccc4n3)nc2c1 [Example 416, N-(2-(quinolin-2-yl)benzo[d]oxazol-5-yl)isobutyramide] | > 401% | –

Row | SMILES | activity at 10 µM [1] | further results
29 | O=S(=O)(Nc1ccc2oc(-c3ccccc3)nc2c1)c1ccccc1 [Example 221, N-(2-phenylbenzo[d]oxazol-5-yl)benzenesulfonamide] | < 200% | –
30 | Cc1cc(NC(=O)c2ccc(F)cc2F)c(OC(=O)c2ccc(F)cc2F)cc1C [Example 238, 2-(2,4-difluorobenzamido)-4,5-dimethylphenyl 2,4-difluorobenzoate] | < 200% | –
31 | CCN(CC)c1ccc(-c2nc3cc(NC(=O)Cc4ccccc4)ccc3o2)cc1 [Example 73, N-(2-(4-(diethylamino)phenyl)benzo[d]oxazol-5-yl)-2-phenylacetamide] | 201 to 300% | –
32 | Fc1ccc(-c2ccc3oc(-c4ccc(Cl)cc4)nc3c2)cn1 [Example 315, 2-(4-chlorophenyl)-5-(6-fluoropyridin-3-yl)benzo[d]oxazole] | < 200% | –
33 | Nc1ccc2oc(-c3ccc(C(F)(F)F)cc3)nc2c1 [Example 15, 2-(4-(trifluoromethyl)phenyl)benzo[d]oxazol-5-amine] | < 200% | –
34 | Cc1ccc(S(=O)(=O)Nc2ccc3[nH]c(-c4ccco4)nc3c2)cc1 [Example 536] | – | Activity [2]: + (Up to 200% relative to control)
35 | Cc1cc(-c2nc3ccccc3[nH]2)ccc1[N+](=O)[O-] [Example 105, 2-(3-methyl-4-nitrophenyl)-1H-benzo[d]imidazole] | > 401% | –
36 | CCCC(=O)Nc1ccc2oc(-c3cccc(Cl)c3)nc2c1 [Example 239, N-(2-(3-chlorophenyl)benzo[d]oxazol-5-yl)butyramide] | < 200% | –
37 | COCCC(=O)Nc1ccc2oc(-c3ccc(Cl)cc3)nc2c1 [Example 323, N-(2-(4-chlorophenyl)benzo[d]oxazol-5-yl)-3-methoxypropanamide] | > 401% | –
38 | O=C(Nc1ccc2oc(-c3cccc(Cl)c3Cl)nc2c1)c1cccc(Cl)c1Cl [Example 376, 2,3-dichloro-N-(2-(2,3-dichlorophenyl)benzo[d]oxazol-5-yl)benzamide] | < 200% | –
39 | CC(C)C(=O)Nc1ccc2oc(-c3ccccc3)nc2c1 [Example 12, N-(2-phenylbenzo[d]oxazol-5-yl)isobutyramide] | 201 to 300% | –
40 | Cc1ccc2nc(NC(=O)c3ccco3)sc2c1 [Example 652] | – | Activity [2]: +++ (Between 301% and 400% relative to control)
41 | Cn1c(-c2ccc(Cl)cc2)nc2ccccc21 [Example 541] | – | Activity [2]: ++ (Between 201% and 300% relative to control)
42 | CCS(=O)(=O)c1ccc2oc(-c3ccc4sccc4c3)nc2c1 [Example 432, 2-(benzo[b]thiophen-5-yl)-5-(ethylsulfonyl)benzo[d]oxazole] | > 401% | –
43 | O=[N+]([O-])c1ccc2nc(-c3ccccc3)oc2c1 [Example 130, 6-nitro-2-phenylbenzo[d]oxazole] | 201 to 300% | –
44 | O=C(Nc1ccc2nc(-c3ccc(Cl)cc3)oc2c1)C1CC1 [Example 353, N-(2-(4-chlorophenyl)benzo[d]oxazol-6-yl)cyclopropanecarboxamide] | 201 to 300% | –
45 | Cc1cc(C)c2oc(-c3ccc(Cl)c(N)c3)nc2c1 [Example 627] | – | Activity [2]: ++++ (Above 401% relative to control)
46 | CCCCNc1ccc2oc(-c3ccc(Cl)cc3)nc2c1 [Example 182, N-butyl-2-(4-chlorophenyl)benzo[d]oxazol-5-amine] | 301 to 400% | –
47 | CC(C)C(=O)Nc1ccc2oc(-c3ccc(Cl)cc3Cl)nc2c1 [Example 257, N-(2-(2,4-dichlorophenyl)benzo[d]oxazol-5-yl)isobutyramide] | < 200% | –
48 | c1ccc(-c2nnc(SCc3nc4ccccc4[nH]3)o2)cc1 [Example 530] | – | Activity [2]: + (Up to 200% relative to control)
49 | CC(C)C(=O)N(C)c1ccc2oc(-c3ccc(Cl)cc3)nc2c1 [Example 320, N-(2-(4-chlorophenyl)benzo[d]oxazol-5-yl)-N-methylisobutyramide] | 201 to 300% | –
50 | CC(=O)Nc1ccc2oc(-c3ccc4ccccc4c3)nc2c1 [Example 373, N-(2-(naphthalen-2-yl)benzo[d]oxazol-5-yl)acetamide] | > 401% | –
51 | CC(c1ccccc1)c1nc2cc(N)ccc2o1 (stereo not shown) [Example 308, 2-(1-phenylethyl)benzo[d]oxazol-5-amine] | < 200% | –
52 | CCC(=O)Nc1ccc2oc(-c3ccc(C(F)(F)F)cc3)nc2c1 [Example 124, N-(2-(4-(trifluoromethyl)phenyl)benzo[d]oxazol-5-yl)propionamide] | < 200% | –
53 | Nc1cc2oc(-c3ccc4c(c3)OCO4)nc2cc1Cl [Example 397, 2-(benzo[d][1,3]dioxol-5-yl)-5-chlorobenzo[d]oxazol-6-amine] | 301 to 400% | –
54 | Cc1cc(-c2nc3ccccc3s2)ccc1[N+](=O)[O-] [Example 599] | – | Activity [2]: ++++ (Above 401% relative to control)
55 | Clc1ccc(-c2nc3cc(NCc4ccccc4)ccc3o2)cc1 [Example 184, N-benzyl-2-(4-chlorophenyl)benzo[d]oxazol-5-amine] | < 200% | –
